The source of these data is US9365614B2, “IAP BIR domain binding compounds” (priority 2006, dated 2016).

Assay [1] concerns the target T1, XIAP linker BIR2-BIR3-ring (GST-linker BIR 2 BIR3Ring) (Homo sapiens, UniProt P98170).
T1 construct: made in house; host or cells: E. coli DH5-alpha
Nature of the assay: Fluorescence polarization competition assay, BIR2-BIR3-ring, probe P2. It is filed as binding. The settings on record: BIR2-BIR3-ring FP assay. The text has this:
GST-linker BIR 2 BIR3Ring: XIAP coding sequence from amino acids 93-497 cloned into PGex4T1 via BamH1 and XhoI. Amino acids 93-497 were amplified from full length XIAP in pGex4t3, using the primers: […] (SEQ ID NO: 7) and GCTGCATGTGTGTCAGAGG (SEQ ID NO: 8), using standard PCR conditions. The PCR fragment was TA cloned into pCR-2.1 (invitrogen). Linker BIR 2 BIR 3Ring was subcloned into pGex4T1 by BamHI/XhoI digestion. The plasmid was transformed into E. coli DH5a for use in protein expression and purification.
For all assays, the fluorescence and fluorescence-polarization was evaluated using a Tecan Polarion instrument with the excitation filter set at 485 nm and the emission filter set at 535 nm. […] Upon establishing these conditions, the compounds potency (IC50) and selectivity, was assessed in the presence of a fix defined-amount of target protein and fluorescent probe and a 10 point serial dilution of the selected compounds. […] Auto-fluorescence for each compound was first assessed by performing a reading of the compound/BSA solution alone. Then 25 uL of the fluorescein probe diluted into 50 mM MES containing 0.05 mg/ml BSA were added and a reading to detect quenching of fluorescein signal done. […]
The ki of various compounds in the BIR2-BIR3-ring FP assay, using probe P2, was determined as described above.
In general terms: In fluorescence polarisation assays a small probe gives low polarisation when free and higher when bound to something large.

A further assay concerns HELA (cervical) cells. Kind of assay: Survival assay with TRAIL, HELA. In kind it is cell-based. The settings on record: Homo sapiens, in the presence of TRAIL (1-3 ng/mL). The procedure: (§1) Survival assays were performed on various cell lines including MDA-MB-231, SKOV3, H460, PC3, HCT-116, and SW480 cells. Cells were seeded in 96 well plates at a respective density of 5000 and 2000 cells per well and incubated at 37° C. in presence of 5% CO2 for 24 hours. Selected compounds were diluted into the media at various concentration ranging from 0.01 uM up to 100 uM. Diluted compounds were added onto the MDA-MB-231 cells. For the MDA-MB-231 SKOV3, H460, PC3, HCT-116, and SW480 cells, the compounds were added either alone or in presence of 1-3 ng/ml of TRAIL. After 72 hours cellular viability was evaluated by MTS based assays. A solution of [3-(4,5-dimethylthiazol-2-yl)-5-(3-carboxymethoxyphenyl)-2-(4-sulfophenyl)-2H-tetrazolium, inner salt; MTS] was added onto cells for a period of 1 to 4 hours. Upon incubation the amount of converted MTS was evaluated using a Tecan spectrophotometer set at 570 nm.

For a further assay, the system named is MDA-MB231 cells. Kind of assay: Survival MTT assay, MDA-MB-231. It is filed as cell-based. The settings on record: Homo sapiens, 72 h. The procedure: (§2) One day prior the treatment with compound, 2000 to 4000 cells per well were plated in a tissue culture treated 96 well format dish with 100 ul of media and incubated at 37° C., 5% CO2. On the day of compound treatment, compounds were diluted with cell culture media to a working stock concentration of 2×. 100 uL of diluted compound were then added to each well. The treated plate was incubated for 72 h at 37° C., 5% CO2. Upon incubation, the cell viability was assessed as followed 20 uL of MTT reagent at 5 mg/ml were added per well to cell plate. The plate was incubated for 2 h at 37° C. in presence of 5% CO2. The supernatant was then removed from the plate and 100 uL of isopropanol were added. The absorbance was measured in a TECAN spectrophotometer at 570 nm. The percentage of viability was expressed in percentage of the signal obtained with non treated cells.

The next assay deals with OVCAR-3 (ovarian) cells. Nature of the assay: Survival assay with TRAIL, OVCAR-3. In kind it is cell-based. The note with it: Homo sapiens, in the presence of TRAIL (1-3 ng/mL).
A further assay deals with HCT116 (colon) cells. Nature of the assay: Survival assay with TRAIL, HCT116. The note with it: Homo sapiens, HCT-116; in the presence of TRAIL (1-3 ng/mL). In kind it is cell-based. Here is the method: as §1
The next assay relates to SKOV-3 cells. Nature of the assay: Survival MTT assay, SKOV-3. The settings on record: Homo sapiens, SK-OV-3, 72 h, read-out: EC50 against SKOV3. In kind it is cell-based. Here is the method:
as §2
(Tetrazolium assays rely on reduction of a dye to a coloured formazan, in cell work by metabolically active cells.)

Another assay concerns PC3 cells. Nature of the assay: Survival assay (MTS), PC3. In kind it is cell-based. The note with it: Homo sapiens, PC-3; in the presence of TRAIL (1-3 ng/ml). The procedure: as §1
Another assay concerns H460 (lung) cells. Kind of assay: Survival assay with TRAIL, H460. It is filed as cell-based. The note with it: Homo sapiens, NCI-H460; in the presence of TRAIL (1-3 ng/mL). The procedure: MDA-MD-231 (breast) and H460 (lung) cancer cells were cultured in RPMI1640 media supplemented with 10% FBS and 100 units/mL of Penicillin and Steptomycin.
as §1

In another assay the test system is HEY (ovarian) cells. Nature of the assay: Survival assay with TRAIL, HEY. It is filed as cell-based. The note with it: in the presence of TRAIL (1-3 ng/mL). Here is the method: as §1

SMILES strings stand for the structures. Bounds are passed on as bounds.

As usually defined, the Ki is a dissociation constant, usually derived from enzyme kinetics or from competition with a known ligand. For orientation: EC50 means the concentration giving half of the maximal effect.

T1 sequence (P98170 93-497): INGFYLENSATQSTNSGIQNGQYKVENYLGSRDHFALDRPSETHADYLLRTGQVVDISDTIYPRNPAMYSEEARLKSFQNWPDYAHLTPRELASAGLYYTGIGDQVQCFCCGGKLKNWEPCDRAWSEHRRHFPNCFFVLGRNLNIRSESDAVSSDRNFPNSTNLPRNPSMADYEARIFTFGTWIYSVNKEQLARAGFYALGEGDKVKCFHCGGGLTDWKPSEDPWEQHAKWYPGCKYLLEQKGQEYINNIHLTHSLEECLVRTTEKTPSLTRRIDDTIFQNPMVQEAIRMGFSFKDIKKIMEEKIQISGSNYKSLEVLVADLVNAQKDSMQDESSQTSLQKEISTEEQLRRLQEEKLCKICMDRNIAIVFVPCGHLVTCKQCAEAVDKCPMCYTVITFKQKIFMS

`CN[C@@H](C)C(=O)N[C@H](C(=O)N1C[C@@H](NC(=O)c2ccc(C(=O)N[C@H]3C[C@@H](C(=O)N[C@@H]4CCCc5ccccc54)N(C(=O)[C@@H](NC(=O)[C@H](C)NC)C(C)(C)C)C3)cc2)C[C@H]1C(=O)N[C@@H]1CCCc2ccccc21)C(C)(C)C` [Compound 3]: the Ki in [1] was < 100 nM. The EC50 in the assay on HELA (cervical) cells is < 1000 nM; with MDA-MB231 cells, < 50 nM; in the assay on OVCAR-3 (ovarian) cells it was < 1000 nM; with HCT116 (colon) cells it was < 1000 nM; in the assay with SKOV-3 cells it was 1 nM; with PC3 cells, < 1000 nM. In addition, the EC50 in the assay with H460 (lung) cells and in the assay on HEY (ovarian) cells was < 1000 nM each time.
